# Results from patent US11344614B2, “Pharmaceutical compositions comprising dengue virus-specific multiple HLA-binding T cell epitopes” (priority 2018, dated 2022).
# Peptide text beside a SMILES is read from it.
# Tested on: CD8+ T cells
# Settings: healthy seronegative HLA-A2 donor CTLs, peptide pulsed or DENV-2 infected JY cells, FIG. 1; for secretion of granzyme B (cytotoxic activity): supernatant
# Description: FIG. 1. […] (A.) HLA-A2 restricted CTLs directed against the peptides (peptides are represented as first 3 residues of the sequence) were generated using peripheral blood from a seronegative donor. PBMCs containing the epitope specific CTLs were harvested, washed, and cultured with the peptide […] cells overnight in an IFN-gamma ELISpot assay. (B). Identical cultures were set up as in (A) but in 96 well round bottom plates. The next day, supernatant was harvested and used to detect cytolytic activity (B) and the cells were analyzed for the marker of degranulation, CD107a (C.)
# Epitope specific CD8^+ T cells (CTLs) were generated as previously described. […] Two hours after pulsing, the non-adherent cells were added back into the plates in a cytokine rich medium of RPMI-1640 supplemented with IL-7 (5 ng/mL), GM-CSF (25 ng/mL), IL-4 (50 ng/mL), and keyhole limpet hemocyanin (5 ug/mL KLH; Sigma-Aldrich) and cultured at 37° C. at 5% CO2. T cells in the culture were restimulated two weeks after the initial stimulation with autologous PBMCs depleted of CD4^+ and CD8^+ T cells and pulsed with synthetic peptides (10 ug/mL) and β2-microglobulin (1.5 ug/mL). Restimulated cells were cultured in RPMI-1640 supplemented with IL-15 (5 ng/mL), GM-CSF (12.5 ng/mL) and IL-2 (10 U/mL) for 7 days. Restimulation was performed a total of three times prior to CTL functional assays. Unless otherwise specified, all cytokines and growth factors were purchased from eBiosciences (San Diego, Calif.).
Structure (SMILES),degranulation marker CD107a (cytotoxic activity),secretion of granzyme B (cytotoxic activity)
CC[C@H](C)[C@H](NC(=O)[C@H](Cc1ccccc1)NC(=O)[C@H](C)N)C(=O)N[C@@H](C)C(=O)N[C@@H](Cc1ccccc1)C(=O)N[C@H](C(=O)N[C@@H](CCCNC(=N)N)C(=O)N[C@@H](Cc1ccccc1)C(=O)O)C(C)C [AFI] (H-AFIAFVRF-OH; N-terminus and C-terminus assumed),upregulation of the degranulation marker CD107a,secretion
CC[C@H](C)[C@H](NC(=O)[C@@H](NC(=O)[C@H](C)NC(=O)[C@H](CC(N)=O)NC(=O)[C@@H]1CCCN1C(=O)[C@@H](NC(=O)[C@H](CS)NC(=O)[C@H](CC(C)C)NC(=O)[C@H](CCSC)NC(=O)[C@H](C)N)[C@@H](C)CC)[C@@H](C)CC)C(=O)O [AML] (H-AMLCIPNAII-OH; N-terminus and C-terminus assumed),upregulation of the degranulation marker CD107a,secretion
CC[C@H](C)[C@H](NC(=O)[C@H](CCSC)NC(=O)[C@@H](NC(=O)[C@H](CC(N)=O)NC(=O)[C@@H]1CCCN1C(=O)[C@@H](NC(=O)[C@H](CS)NC(=O)[C@H](CC(C)C)NC(=O)[C@@H](N)CC(C)C)C(C)C)[C@@H](C)CC)C(=O)O [LLC] (H-LLCVPNIMI-OH; N-terminus and C-terminus assumed),upregulation of the degranulation marker CD107a,secretion
CC[C@H](C)[C@H](NC(=O)[C@@H](NC(=O)[C@@H](N)CCSC)[C@@H](C)CC)C(=O)N[C@H](C(=O)N[C@@H](CC(=O)O)C(=O)N[C@@H](CCC(=O)O)C(=O)N[C@@H](C)C(=O)N[C@@H](Cc1c[nH]cn1)C(=O)N[C@@H](Cc1ccccc1)C(=O)O)C(C)C [MII] (H-MIIVDEAHF-OH; N-terminus and C-terminus assumed),upregulation of the degranulation marker CD107a,secretion
